One data set relates to HIV-13B in MT4 cells. The data set is described as follows: Antiviral activity: inhibition of the cytopathic effect of HIV in MT4 cells. The format is cell-based, HIV-1. Particulars: Human immunodeficiency virus 1, MT4.
A short description of another data set: in vitro. The format is cell-based. Particulars: human. From the text:
The anti-HIV activity of the compounds of the invention can be determined in MT4 cells according to the procedure of Kempf, et. al. (Antimicrob. Agents Chemother. 1991, 35, 2209).

Another data set has as its target HIV-1 protease (Human immunodeficiency virus type 1 group M subtype B, UniProt P04585). Briefly: Fluorogenic assay for screening inhibitors of HIV protease. The format is biochemical. As to conditions: Inhibitor Concentration 0.5 nanomolar, fluorogenic substrate, pH 4.5, read-out: Percent Inhibition. The method, then: The inhibitory potency of the compounds of the invention can be determined by the following method.
A compound of the invention is dissolved in DMSO and a small aliquot further diluted with DMSO to 100 times the final concentration desired for testing. The reaction is carried out in a 6×50 mm tube in a total volume of 300 microliters. The final concentrations of the components in the reaction buffer are: 125 mM sodium acetate, 1 M sodium chloride, 5 mM dithiothreitol, 0.5 mg/ml bovine serum albumin, 1.3 μM fluorogenic substrate, 2% (v/v) dimethylsulfoxide, pH 4.5. After addition of inhibitor, the reaction mixture is placed in the fluorometer cell holder and incubated at […] for several minutes. The reaction is initiated by the addition of a small aliquot of cold HIV protease. The fluorescence intensity (excitation 340 nm, emission 490 nm) is recorded as a function of time. The reaction rate is determined for the first six to eight minutes. The observed rate is directly proportional to the moles of substrate cleaved per unit time. The percent inhibition is 100×(1-(rate in presence of inhibitor)/(rate in absence of inhibitor)).
Fluorogenic substrate: Dabcyl-[…]EDANS wherein DABCYL=4-(4-dimethylamino-phenyl)azobenzoic acid and EDANS=5-((2-aminoethyl)amino)-naphthalene-1-sulfonic acid.

Each structure is given as a SMILES string. Like-named read-outs stand apart in the source and are kept apart here.

Consider `CC(C)c1nc(CN(C)C(=O)N[C@H](C(=O)N[C@H](Cc2cncs2)C[C@H](O)[C@H](Cc2ccccc2)NC(=O)OCc2cncs2)C(C)C)cs1` [Example 8, (2S,3S,5S)-5-(N-(N-((N-Methyl-N-((2-isopropyl-4-thiazolyl)methyl)amino)carbonyl)valinyl)amino)-1-phenyl-2-(N-((5-thiazolyl)methoxycarbonyl)amino)-6-(5-thiazolyl)-3-hydroxyhexane], for which the IC50 in the data set with HIV-13B in MT4 cells (read-out: IC50) was 57 to 95 nM. The CC50 in the data set “in vitro” turned out to be 97000 nM.

For `CC(C)[C@H](NC(=O)OCc1csc(N(C)C)n1)C(=O)N[C@@H](Cc1ccccc1)C[C@H](O)[C@H](Cc1ccccc1)NC(=O)OCc1cncs1` [Example 9, (2S,3S,5S)-5-(N-(N-((2-(N,N-Dimethylamino)-4-thiazolyl)methoxycarbonyl)valinyl)amino)-2-(N-((5-thiazolyl)methoxycarbonyl)amino)-1,6-diphenyl-3-hydroxyhexane], the IC50 in the data set with HIV-13B in MT4 cells (read-out: IC50) fell in the range of 80 to 100 nM. The compound also came in with a CC50 in the data set “in vitro” of 62000 nM.

For the compound `CC(C)[C@H](NC(=O)OCc1csc(N2CCCC2)n1)C(=O)N[C@@H](Cc1ccccc1)C[C@H](O)[C@H](Cc1ccccc1)NC(=O)OCc1cncs1` [Example 13, (2S,3S,5S)-5-(N-(N-((2-(1-Pyrrolidinyl)-4-thiazolyl)methoxycarbonyl)valinyl)amino)-2-(N-((5-thiazolyl)methoxycarbonyl)amino)-1,6-diphenyl-3-hydroxyhexane], the IC50 with HIV-13B in MT4 cells (read-out: IC50) fell in the range of 56 to 88 nM. The CC50 in “in vitro” was determined as 56000 nM. In addition, the inhibition at 0.0005 µM at HIV-1 protease is 46%.

Take `CC(C)[C@H](NC(=O)OCc1csc(N2CCCC2)n1)C(=O)N[C@@H](Cc1ccccc1)[C@@H](O)C[C@H](Cc1ccccc1)NC(=O)OCc1cncs1` [Example 14, (2S,3S,5S)-2-(N-(N-((2-(1-Pyrrolidinyl)-4-thiazolyl)-methoxycarbonyl)valinyl)amino)-5-(N-((5-thiazolyl)-methoxycarbonyl)amino)-1,6-diphenyl-3-hydroxyhexane]: the IC50 in the data set with HIV-13B in MT4 cells (read-out: IC50) lay within 140 to 220 nM. For the same compound, the CC50 in “in vitro” is more than 100000 nM.

Regarding `CC(C)c1nc(CN(C)C(=O)N[C@H](C(=O)N[C@@H](Cc2ccccc2)C[C@H](O)[C@H](Cc2ccccc2)NC(=O)OCc2cnc(C(C)C)s2)C(C)C)cs1` [Example 45, (2S,3S,5S)-5-(N-(N-((N-Methyl-N-((2-isopropyl-4-thiazolyl)methyl)amino)carbonyl)valinyl)amino)-2-(N-(((2-isopropyl)-5-thiazolyl)methoxycarbonyl)amino)-1,6-diphenyl-3-hydroxyhexane], in the data set on HIV-13B in MT4 cells (read-out: IC50), the IC50 lay in the range of 36 to 40 nM. Also, on HIV-1 protease, the inhibition at 0.0005 µM was found to be 50%.

Regarding `CC(C)[C@H](NC(=O)N(C)Cc1csc(N2CCCC2)n1)C(=O)N[C@@H](Cc1ccccc1)C[C@H](O)[C@H](Cc1ccccc1)NC(=O)OCc1cncs1` [Example 46, (2S,3S,5S)-5-(N-(N-((N-Methyl-N-((2-(1-pyrrolidinyl)-4-thiazolyl)methyl)amino)carbonyl)valinyl)amino)-2-(N-((5-thiazolyl)methoxycarbonyl)amino)-1,6-diphenyl-3-hydroxyhexane], the IC50 in the data set with HIV-13B in MT4 cells (read-out: IC50) was in the range of 100 to 170 nM. Also, at HIV-1 protease, the inhibition at 0.0005 µM turned out to be 46%.

Consider `CC(C)c1nc(CCOC(=O)N[C@H](C(=O)N[C@@H](Cc2ccccc2)[C@@H](O)C[C@H](Cc2ccccc2)NC(=O)OCc2cncs2)C(C)C)cs1` [Example 48, (2S,3S,5S)-2-(N-(N-((2-(2-Isopropyl-4-thiazolyl)ethoxy)carbonyl)valinyl)amino)-5-(N-((5-thiazolyl)methoxycarbonyl)amino)-1,6-diphenyl-3-hydroxyhexane], for which the IC50 in the data set on HIV-13B in MT4 cells (read-out: IC50) was in the range of 90 to 110 nM. Also, in the data set “in vitro”, the CC50 is more than 100000 nM.

Turning to `CC(C)[C@H](NC(=O)N(C)Cc1csc(N2CCCC2)n1)C(=O)N[C@@H](Cc1ccccc1)C[C@H](O)[C@H](Cc1ccccc1)NC(=O)OCc1ccno1` [Example 49, (2S,3S,5S)-5-(N-(N-((N-Methyl-N-((2-(1-pyrrolidinyl)-4-thiazolyl)methyl)amino)carbonyl)valinyl)amino)-2-(N-((5-isoxazolyl)methoxycarbonyl)amino)-1,6-diphenyl-3-hydroxyhexane], the concentration for half-maximal inhibition (IC50) in the data set on HIV-13B in MT4 cells (read-out: IC50) fell in the range of 81 to 130 nM. This compound also yielded a CC50 in the data set “in vitro” of 38000 nM.

As for `CCc1nc(CN(C)C(=O)N[C@H](C(=O)N[C@@H](Cc2ccccc2)C[C@H](O)[C@H](Cc2ccccc2)NC(=O)OCc2cncs2)C(C)C)cs1` [Example 53, (2S,3S,5S)-5-(N-(N-((N-Methyl-N-((2-ethyl-4-thiazolyl)methyl)amino)carbonyl)valinyl)amino)-2-(N-((5-thiazolyl)methoxycarbonyl)amino)-1,6-diphenyl-3-hydroxyhexane], the IC50 with HIV-13B in MT4 cells (read-out: IC50) is 32 to 73 nM.

In the data set with HIV-13B in MT4 cells, `CCCN(Cc1csc(C(C)C)n1)C(=O)N[C@@H](C)C(=O)N[C@@H](Cc1ccccc1)C[C@H](O)[C@H](Cc1ccccc1)NC(=O)OCc1cncs1` [Example 54] yielded an IC50 of 110 to 170 nM.

In the data set with HIV-13B in MT4 cells, `CC(C)CN(Cc1csc(C(C)C)n1)C(=O)N[C@@H](C)C(=O)N[C@@H](Cc1ccccc1)C[C@H](O)[C@H](Cc1ccccc1)NC(=O)OCc1cncs1` [Example 55] displayed a 50% inhibitory concentration (IC50) of 140 to 220 nM.

Consider `CC(C)c1nc(CN(C)C(=O)N[C@@H](C)C(=O)N[C@@H](Cc2ccccc2)C[C@H](O)[C@H](Cc2ccccc2)NC(=O)OCc2cncs2)co1` [Example 56, (2S,3S,5S)-5-(N-(N-((N-Methyl-N-((2-isopropyl-4-oxazolyl)methyl)amino)carbonyl)-L-alaninyl)amino)-2-(N-((5-thiazolyl)methoxycarbonyl)amino)-1,6-diphenyl-3-hydroxyhexane], for which the IC50 in the data set with HIV-13B in MT4 cells (read-out: IC50) was 50 to 67 nM.

For `CC(C)c1nc(CN(C)C(=O)N[C@@H](C)C(=O)N[C@@H](Cc2ccccc2)C[C@H](O)[C@H](Cc2ccccc2)NC(=O)OCc2ccno2)co1` [Example 57, (2S,3S,5S)-5-(N-(N-((N-Methyl-N-((2-isopropyl-4-oxazolyl)methyl)amino)carbonyl)-L-alaninyl)amino)-2-(N-((5-isoxazolyl)methoxycarbonyl)amino)-1,6-diphenyl-3-hydroxyhexane], the 50% inhibitory concentration (IC50) with HIV-13B in MT4 cells (read-out: IC50) is 35 to 48 nM.

For the compound `CC(C)[C@H](NC(=O)N(C)Cc1csc(C2CCCC2)n1)C(=O)N[C@@H](Cc1ccccc1)C[C@H](O)[C@H](Cc1ccccc1)NC(=O)OCc1cncs1` [Example 58, (2S,3S,5S)-5-(N-(N-((N-Methyl-N-((2-cyclopentyl-4-thiazolyl)methyl)amino)carbonyl)valinyl)amino)-2-(N-((5-thiazolyl)methoxycarbonyl)amino)-1,6-diphenyl-3-hydroxyhexane], the IC50 in the data set on HIV-13B in MT4 cells (read-out: IC50) is 30 to 46 nM. Besides, in the data set “in vitro”, the CC50 came out at 18000 nM. Also, the inhibition at 0.0005 µM on HIV-1 protease amounted to 49%.

On to `CC(C)Cc1nc(CN(C)C(=O)N[C@H](C(=O)N[C@@H](Cc2ccccc2)C[C@H](O)[C@H](Cc2ccccc2)NC(=O)OCc2cncs2)C(C)C)cs1` [Example 59, (2S,3S,5S)-5-(N-(N-((N-Methyl-N-((2-isobutyl-4-thiazolyl)methyl)amino)carbonyl)valinyl)amino)-2-(N-((5-thiazolyl)methoxycarbonyl)amino)-1,6-diphenyl-3-hydroxyhexane], for which the IC50 in the data set on HIV-13B in MT4 cells (read-out: IC50) lay within 110 to 130 nM. In “in vitro”, this compound came in with a CC50 of 18000 nM. Also, on HIV-1 protease, the inhibition at 0.0005 µM is 39%.

In the data set with HIV-13B in MT4 cells, `CCN(Cc1csc(C2CCCC2)n1)C(=O)N[C@@H](C)C(=O)N[C@@H](Cc1ccccc1)C[C@H](O)[C@H](Cc1ccccc1)NC(=O)OCc1cncs1` [Example 60] gave an IC50 of 340 to 510 nM. For the same compound, the CC50 in the data set “in vitro” (concentration at which 50% of the cells remain viable, MT4 cells, read-out: LC50 (the source's name)) was found to be 17000 nM. For the same compound, the inhibition at 0.0005 µM at HIV-1 protease turned out to be 44%.

Take `CC(C)c1nc(CCN(C)C(=O)N[C@H](C(=O)N[C@@H](Cc2ccccc2)C[C@H](O)[C@H](Cc2ccccc2)NC(=O)OCc2cncs2)C(C)C)cs1` [Example 61, (2S,3S,5S)-5-(N-(N-((N-Methyl-N-(2-(2-isopropyl-4-thiazolyl)ethyl)amino)carbonyl)valinyl)amino)-2-(N-((5-thiazolyl)methoxycarbonyl)amino)-1,6-diphenyl-3-hydroxyhexane]: in the data set with HIV-13B in MT4 cells (read-out: IC50), the IC50 was in the range of 150 to 220 nM.

With `CC(C)c1nc(CN(NC(=O)OC(C)(C)C)C(=O)N[C@H](C(=O)N[C@@H](Cc2ccccc2)C[C@H](O)[C@H](Cc2ccccc2)NC(=O)OCc2cncs2)C(C)C)cs1` [Example 62, (2S,3S,5S)-5-(N-(N-((N-(tert-Butyloxycarbonylamino)-N-((2-isopropyl-4-thiazolyl)methyl)amino)carbonyl)valinyl)amino)-2-(N-((5-thiazolyl)methoxycarbonyl)amino)-1,6-diphenyl-3-hydroxyhexane], in the data set with HIV-13B in MT4 cells (read-out: IC50), the IC50 was 690 to 1000 nM. For the same compound, in the data set “in vitro”, the CC50 is 17000 nM. Moreover, on HIV-1 protease, the inhibition at 0.0005 µM came to 54%.

Turning to `CC(C)c1nc(COC(=O)N[C@H](C(=O)N[C@H](Cc2cncs2)C[C@H](O)[C@H](Cc2ccccc2)NC(=O)OCc2cncs2)C(C)C)cs1` [Example 64, (2S,3S,5S)-5-(N-(N-((2-Isopropyl-4-thiazolyl)methoxycarbonyl)valinyl)amino)-1-phenyl-2-(N-((5-thiazolyl)methoxycarbonyl)amino)-6-(5-thiazolyl)-3-hydroxyhexane], the IC50 in the data set on HIV-13B in MT4 cells (read-out: IC50) lay in the range of 100 to 130 nM. In addition, the CC50 in “in vitro” is more than 100000 nM.

As a reminder, the IC50 is the point on the concentration scale where inhibition reaches its midpoint. One may read the inhibition as the share of the control response that was lost under treatment.
